According to paper PMC2895808 (Vaccine, 2010):
pIC50: −log10 of the molar value. Ends that are not written are not given here.

Assays:
Assay in all cases: biochemical
HLA A*0202 = HLA A*0202 (Homo sapiens, UniProt P04439, D140Y/D185E/D98H/E176V/E277Q/G131W/G231S/I119L/I121R/I166T/I218V/L180W/L300P/L318F/N151K/N90K/P208A/P217A/Q67R/Q86G/Q94H/R138H/R169H/T345S)
HLA A*6802 = HLA A*6802 (Homo sapiens, UniProt P04439, A269V/D140Y/D185E/E176V/E277Q/E87N/F33Y/G231S/I121R/I166T/I218V/L180W/L300P/L318F/N151K/P208A/P217A/Q86R/R138H/R169H/S129P/T345S/V36M)
HLA A*0203 = HLA A*0203 (Homo sapiens, UniProt P04439, A173T/D140Y/D185E/D98H/E277Q/G131W/G231S/I119V/I121R/I166T/I218V/L180W/L300P/L318F/N151K/N90K/P208A/P217A/Q86G/Q94H/R138H/R169H/T345S)
HLA B*0702 = HLA B*0702 (Homo sapiens, UniProt P01889)
HLA B*3501 = HLA B*3501 (Homo sapiens, UniProt P01889, A329T/A93T/A95T/C349S/D201E/D98Y/E176V/E187L/E204Q/E69T/I218V/K202T/L119I/Q94N/R155S/R180L/S121R/S35A/S48A/T118I/V127L/V306I/V36M/Y140S/Y91F)
HLA B*3503 = HLA B*3503 (Homo sapiens, UniProt P01889, A329T/A93T/A95T/C349S/D201E/D98Y/E176V/E187L/E204Q/E69T/I218V/K202T/L119I/Q94N/R155S/R180L/S121R/S35A/S48A/T118I/V127L/V306I/V36M/Y140F/Y91F)
HLA B*4201 = HLA B*4201 (Homo sapiens, UniProt P01889, D138N/E176V/E187T/K202T/R180D)
HLA B*5101 = HLA B*5101 (Homo sapiens, UniProt P01889, A329T/A93T/A95T/C349S/D138N/D201E/D98Y/E187L/E204Q/E69T/G107R/I218V/K202T/L105A/L119W/N104I/Q94N/R106L/R155S/R180L/S101N/S121T/S35A/S48A/V306I/V36M/Y195H/Y91F)
HLA B*5301 = HLA B*5301 (Homo sapiens, UniProt P01889, A329T/A93T/A95T/C349S/D201E/D98Y/E176V/E187L/E204Q/E69T/G107R/I218V/K202T/L105A/L119I/N104I/Q94N/R106L/R155S/R180L/S101N/S121R/S35A/S48A/T118I/V127L/V306I/V36M/Y140S/Y91F)
HLA B*5401 = HLA B*5401 (Homo sapiens, UniProt P01889, A329T/C349S/D138N/D201E/E176V/E187T/E204Q/E69G/I76V/K202T/L119W/R155S/R180L/S121T/S35A/S48A/V127L/V306I/V36M/Y140L)

Molecule | pIC50 (HLA A*0202) | pIC50 (HLA A*6802) | pIC50 (HLA A*0203) | pIC50 (HLA B*0702) | pIC50 (HLA B*3501) | pIC50 (HLA B*3503) | pIC50 (HLA B*4201) | pIC50 (HLA B*5101) | pIC50 (HLA B*5301) | pIC50 (HLA B*5401)
CSCC[C@H](NC(=O)[C@H](Cc1ccccc1)NC(=O)[C@@H](NC(=O)[C@@H](NC(=O)[C@H](Cc1ccccc1)NC(=O)[C@@H](NC(=O)[C@@H](N)C(C)C)C(C)C)C(C)C)C(C)C)C(=O)NCC(=O)N[C@H](C(=O)O)C(C)C [Peptide 7103.0001] | 5.46 | 7.41 |  |  |  |  |  |  |  | 
CC(C)C[C@H](NC(=O)[C@H](Cc1ccccc1)NC(=O)[C@@H](NC(=O)[C@@H](NC(=O)[C@H](Cc1ccccc1)NC(=O)[C@@H]1CCCN1C(=O)[C@@H](NC(=O)[C@H](CC(C)C)NC(=O)[C@@H](N)Cc1ccccc1)C(C)C)C(C)C)C(C)C)C(=O)O [Peptide 7103.0003] | > 10.00 | 8.82 | 9.96 |  |  |  |  |  |  | 
HPGSVNEFDF [HF10] |  |  |  | 5.44 | 5.68 | 4.94 | 6.06 | 4.83 | 5.26 | 6.07
